This is an account of results in patent US11001795B2, “In vitro gastrointestinal model comprising lamina propria-derived cells” (EMULATE, Inc., priority 2016, dated 2021).

“Also recorded” adds a separate entry of the source.

The subject of data set [1] is Intestine On-Chip with TH1 or TH9 cells. The experiment in a line: Cytokine production in Intestine On-Chip seeded with plate-differentiated TH1 or TH9 cells. Format: cell-based, human. The following applies: for IL-10: TH9 populations; for IL-6 protein: untreated vs PAM2CSK4 treated with and without Tofacitinib. The source says: In this example, a TH1 cell population was produced from a population of mature/naive CD4+ T cells, as described in Example 7. This population of CD4+ T cells were co-stimulated with adhered CD3 and soluble CD28 antibodies, without added cytokines, for inducing differentiation of TH1 cells on plates. Unlike co-stimulation with adhered CD3 and soluble CD28 antibodies in the presence of TGFB, IL-4, and IFNg cytokines which induced differentiation of TH9 cells, as described herein. Thus, in this example, purified CD4+ T cell populations were plated into tissue culture plates for activation and differentiation into one selected T cell subtype, e.g. TH1 in one plate, and TH9 in another plate.
In order to further test whether PBMCs activated and differentiated with soluble factors were capable of inducing inflammation on chips, pro-inflammatory cytokine production was compared between untreated, PAM2CSK4 treated with and without Tofacitinib.
Experiments were designed to evaluate whether anti-CD3 and anti-CD28 co-stimulatory activation (soluble reagents) on chip would stimulate on chip T cells (previously activated and differentiated on plates) to continue functioning as activated effector cells within the chip tissue microenvironment. Further, TH1 and TH9 T cell populations underwent testing for an exacerbated response (either tissue alterations or changes in the characteristics of the T cell population) to a specific antigen stimulation, e.g. PAM2CSK4 (TLR2) bacterial agonist, with or without additional co-stimulation (i.e. using soluble reagents). Stimulation on-chip was done as a treatment on Day 7 of culture.
Evaluation of the effects of T-cell activation on the Intestine On-Chip by perfusion of soluble immune activating factors (anti-CD3 and anti-CD28) to the media is shown in FIGS. 36A-B-39A-C. In particular, activated T-cell subsets were evaluated for disease-specific cytokine production.
T cell subsets were purified from PBMCs as described herein, then stimulated in tissue culture plates using plate bound CD3 and soluble CD28 antibodies.

Data set [2] relates to UC patient's resident immune cells. The experiment in a line: 24 hour bacterial challenge of resident immune cells cultured on-plates, secreted cytokines. Format: cell-based, human. The following applies: immune cells from inflamed UC tissue, 24 hour challenge.
Data set [3] deals with Caco-2 epithelial cell layer. Format: cell-based, human. The source says: See an exemplary permeability assay method in Example 4.
Effects of resident leukocytes isolated from LP

For data set [4], the system named is Caco-2/HUVEC/LPDC microfluidic co-cultures. Briefly: Cytokine and chemokine production in microfluidic co-cultures with LP derived cells. Format: cell-based, human. The method, then:
An exemplary bacteria antigen used was PAM2CSK4. […] PAM2CSK4 refers to a synthetic diacylated lipopeptide.
In order to determine contributory factors to the trends in permeability changes observed by combinations of prednisone treatments as in Example 5, cytokine and chemokine production were measured from media samples obtained from the microfluidic cultures as described in Example 5. After an incubation time, media samples were extracted from the microfluidic device then used for determining amounts of cytokine and chemokine produced, such as IL-6 and IL-9 in FIG. 18A-B; IL-8 and G-CSF in FIG. 19A-B; GM-CSF and MCP-1 in FIG. 20A-B: MIP1b and PDGF-AB/BB in FIG. 21A-B; and RANTES in FIG. 22. Amounts of cytokine and chemokine protein are measure in pg/ml (picogram per milliliter).

Data set [5] has as its system TH1 and TH9 CD4+ T cell populations. The experiment in a line: Bacterial antigen stimulation of TH1 and TH9 populations on cell culture plates. The class given is cell-based, human. The method, then:
Purified human CD4+ cells in tissue culture media, comprising soluble anti-human CD28 mAb (e.g. PharMingen, San Diego, Calif.), were added to CD3 coated plastic tissue culture plates for non-antigen-specific activation. Co-stimulation of the CD3 transmembrane signaling complex and the T cell CD28 molecule results in nonantigen specific stimulation of the TCR (CD3). After three days of incubation, the default T cell population is considered a TH1 population. After three days of co-stimulation, with or without added cytokines, cells are pipetted out of the plates, the plates are washed with media or PBS to remove any remaining cells, then harvested cells are washed at least 3 times to remove cell fragments and culture reagents, prior to use of the activated T cell population for seeding microfluidic chips on Day 0 of the chip timeline.
In this example, a TH1 cell population was produced from a population of CD4+ T cells obtained from a sample of PBMCs. This population of CD4+ T cells were co-stimulated with soluble CD3 and CD28 antibodies without added cytokine stimulation for inducing differentiation of TH1 cells. Unlike the co-stimulation with soluble CD3 and CD28 antibodies in the presence of TGFB, IL-4, and IFNg cytokines for inducing differentiation of TH9 cells as described herein.
A sample of each TH cell type was exposed to PAM2CSK4, then log 2 fold changes in protein expression of either pathway molecules or IL-9 were measured and compared to duplicate samples not treated with PAM2CSK4.

In data set [6] the test system is Ulcerative Colitis patients. The following applies: cited from earlier work.
[7] abbreviates: prednisone alone, non-inflamed LPDC.
[8] abbreviates: prednisone, inflamed LPDCs, with and without PAM2CSK4.
Setting [9] is: prednisone, non-inflamed and inflamed LPDCs treated with PAM2CSK4.

Excerpt for Caco-2 epithelial layer: The following exemplary protocol outlines the sterilization/functionalization, coating, media wash, and cell seeding steps for preparing the Intestine-on-Chip with epithelial cells, e.g. Caco-, human primary epithelial cells, etc., HUVECs, and resident immune cells from lamina propria-derived cells.
An exemplary experimental chip culture schedule is presented as a timeline starting from Day 0 (seeding chips) by adding HUVEC cells and lamina propria-derived cells; Day 1 was seeding a top layer of epithelial cells and connecting to a flow system; by Day 7 treatments, such as adding PAM2CSK4; and starting Day 8 testing layers and/or removing samples for further analysis. A sample such as effluent was tested for cytokine section from cells. Other samples removed were histological samples for fixation and ICC (immunocytochemistry) such as for determining cellular appearance, determination of tight junction integrity, such as by staining for actin, ZO-1, intracellular cytokine co-localization, etc, and physiological testing, such as migration of particles through the extracellular regions of the epidermal layer. Additional tests may include RNA isolation for determining gene expression levels, such as for proteins involved with tight junction formation, cytokine expression, etc.
The chips treated with PAM2CSK4 as a model bacterial antigen are considered infected chips. […]

Consider PAM2CSK4, for which the IL-10 result in data set [1] (unstimulated vs Pam stimulated) is listed as “no insignificant differences”. For the same molecule, the IL-8 entry in data set [1] (antigen specific stimulation (PAM2CSK4) on-chip) is on record as “increased”. Further, the IL-6 protein entry in data set [1] was “no significant differences”. Besides, in data set [2], the “Response (secreted cytokines) to PAM2CSK4” value is “stronger response”. Moreover, the “Avg. Z Height (z-arrow) of Caco-2 epithelial layer” value in the data set with Caco-2 epithelial layer came out at 84 um+/−11. In data set [3], the “Permeability of Caco-2 epithelial cell layer” value was “increase in permeability”. The “Loss of barrier function” value in data set [3] (PAM2CSK4 treatment, overnight incubation, 4 LP mil/ml) is recorded as “Loss of barrier function is shown”. In addition, in data set [4] (PAM2CSK4, 1 and 2 LP mil/ml), the “IL-9 production, apical” value is given as “increased”. Further, the “IL-9 production, basal” value in data set [4] (PAM2CSK4, 4 LP mil/ml) was “higher level of IL-9 production”. Also, the IL-9 production result in data set [4] (PAM2CSK4, LP leukocyte co-cultures for each source) is “induce IL-9”; in data set [4] (PAM2CSK4, non-inflamed and inflamed UC LPDC co-cultures, over endogenous levels), “significantly induced IL-9 production”. Further, the IL6 response entry is listed as “induce an IL6 response” in data set [4] (PAM2CSK4, epithelial cells without LP) and “induce an IL6 response” in data set [4] (PAM2CSK4, healthy LP leukocyte co-cultures). Moreover, the IL-6 production result is recorded as “increased IL-6 production” in data set [4] (PAM2CSK4, inflamed LPDC samples); “does not appear to have an effect” in data set [4] (PAM2CSK4, non-inflamed LPDC samples); “higher level of IL-6 production” in data set [4] (PAM2CSK4 at 1, 2 and 4 LP mil/ml vs co-cultures with no PAM2CSK4). For the same molecule, the “Concentration of cytokine protein signaling” value in data set [5] (PAM2CSK4, TH1 (CD) and TH9 (UC) cells on-plates) was “increases in the concentration of cytokine protein signaling”. Moreover, the IL-9 entry in data set [5] (PAM2CSK4 stimulation, TH1 populations) is given as “measurable; also recorded: did significantly increase”. The IRF4 result in data set [5] (PAM2CSK4 stimulation, TH1 populations, log 2 fold change) is reported as “measurable”. Moreover, the “IL-9, or IL-9 activation factors, log 2 fold changes” value in data set [5] (PAM2CSK4 stimulation, TH9 populations in tissue culture plate) is reported as “did not significantly increase”.
For `C[C@]12C=CC(=O)C=C1CC[C@@H]1[C@@H]2C(=O)C[C@@]2(C)[C@H]1CC[C@]2(O)C(=O)CO` [prednisone], in data set [6] (Ulcerative Colitis patients), the Treated patients non-responsive result is reported as “around 16%”, the “Treated patients with full remission” value is reported as 54% and the “Treated patients with partial remission” value was 30%. In addition, the “Undesirable Side Effects” value in data set [6] (in vivo) was “increased Risk of infection, Weight gain, Hyperglycemia, Hypertension, Bone loss”. Moreover, the PDGF-AA/BB production result in data set [4] (prednisone alone) was “did not appear to be a reduction in PDGF-AA/BB”. For the same molecule, the IL-8 production entry in data set [4] (prednisone alone or PAM2CSK4, non-inflamed LPDC) is recorded as “did not appear to be a reduction in IL-8”. In data set [4] (setting [7]), the GM-CSF production entry is recorded as “did not appear to be a reduction in GM-CSF” and the MCP-1 production result is on record as “did not appear to be a reduction in MCP-1”. Moreover, in data set [4] (setting [8]), the GM-CSF production entry is given as “reduced GM-CSF production”, the IL-8 production entry is listed as “trend for reducing IL-8 production” and the MCP-1 production entry is “reduced MCP-1 production”. Further, the IL-6 production result in data set [4] (prednisone, inflamed UC LPDC, endogenous or PAM2CSK4 induced) is listed as “reduce IL-6 production”. In addition, the IL-6 production result in data set [4] (prednisone, non-inflamed LPDCs) was “does not appear to have an effect”. In addition, in data set [4] (prednisone, non-inflamed LPDCs (printed in the MIP-1b section)), the PDGF-AA/BB production result is listed as “trend for reducing PDGF-AA/BB production”. For the same molecule, in data set [4] (prednisone, non-inflamed and inflamed LPDCs (stated in heading only)), the MIP-1b production result was “Tends to Reduce MIP-1b Production”. Moreover, in data set [4] (setting [9]), the PDGF-AA/BB production result was “trend for reducing PDGF-AA/BB production” and the RANTES production entry is given as “trend for reducing RANTES production”. For the same molecule, in data set [4] (prednisone, non-inflamed and inflamed UC LPDC, regardless of PAM2CSK4), the IL-9 production result is given as “production is reduced; also recorded: significantly reduced”. The G-CSF production entry in data set [4] (prednisone, non-inflamed or inflamed LPDCs, with and without PAM2CSK4) is “trend for reducing G-CSF production”. Also, the “Inflammatory responses (secreted cytokines) to PAM2CSK4 treatment” value in data set [4] (prophylactic prednisone on-chip, noninflamed and inflamed UC resident immune cells) is recorded as “suppresses the inflammatory responses”.
Take Tofacitinib (citrate): the IL-10 result in data set [1] (mixture of PAM2CSK4 and Tofacitinib vs unstimulated cells) was “induced significant amounts”. Besides, in data set [1], the IL-6 protein result was “no significant differences”.
